Results taken from PMC3961306, “Comparison of the Cancer Gene Targeting and Biochemical Selectivities of All Targeted Kinase Inhibitors Approved for Clinical Use” (PLoS ONE, 2014).
Read-outs that look alike come from different tables or passages of the source.

Tests used:
Experiment in all cases: Kinase profiling in a biochemical assay panel (mobility shift assays and ELISA), %-inhibition at 1 μM; selectivity entropy
[1] = target: panel of more than 300 wild-type and mutant kinases (313 kinase panel) (Homo sapiens, UniProt Q02763); conditions: kinase TIE2; 1 μM
[2] = target: panel of more than 300 wild-type and mutant kinases (313 kinase panel) (Homo sapiens, UniProt Q9NYA1); conditions: kinase SPHK1; 1 μM
[3] = target: panel of more than 300 wild-type and mutant kinases (313 kinase panel) (Homo sapiens, UniProt Q16288); conditions: kinase TRKC; 1 μM
[4] = target: panel of more than 300 wild-type and mutant kinases (313 kinase panel) (Homo sapiens, UniProt P14616)
[5] = target: panel of more than 300 wild-type and mutant kinases (313 kinase panel) (Homo sapiens, UniProt P08631)
[6] = target: panel of more than 300 wild-type and mutant kinases (313 kinase panel) (Homo sapiens, UniProt P30291)
[7] = target: panel of more than 300 wild-type and mutant kinases (313 kinase panel) (Homo sapiens, UniProt P08922)
[8] = system: panel of more than 300 wild-type and mutant kinases (313 kinase panel)
[9] = target: T1, panel of more than 300 wild-type and mutant kinases (313 kinase panel) (Homo sapiens, UniProt Q99683); conditions: kinase MAP3K5; compound at 1 μM
T1 sequence (Q99683 1-1374): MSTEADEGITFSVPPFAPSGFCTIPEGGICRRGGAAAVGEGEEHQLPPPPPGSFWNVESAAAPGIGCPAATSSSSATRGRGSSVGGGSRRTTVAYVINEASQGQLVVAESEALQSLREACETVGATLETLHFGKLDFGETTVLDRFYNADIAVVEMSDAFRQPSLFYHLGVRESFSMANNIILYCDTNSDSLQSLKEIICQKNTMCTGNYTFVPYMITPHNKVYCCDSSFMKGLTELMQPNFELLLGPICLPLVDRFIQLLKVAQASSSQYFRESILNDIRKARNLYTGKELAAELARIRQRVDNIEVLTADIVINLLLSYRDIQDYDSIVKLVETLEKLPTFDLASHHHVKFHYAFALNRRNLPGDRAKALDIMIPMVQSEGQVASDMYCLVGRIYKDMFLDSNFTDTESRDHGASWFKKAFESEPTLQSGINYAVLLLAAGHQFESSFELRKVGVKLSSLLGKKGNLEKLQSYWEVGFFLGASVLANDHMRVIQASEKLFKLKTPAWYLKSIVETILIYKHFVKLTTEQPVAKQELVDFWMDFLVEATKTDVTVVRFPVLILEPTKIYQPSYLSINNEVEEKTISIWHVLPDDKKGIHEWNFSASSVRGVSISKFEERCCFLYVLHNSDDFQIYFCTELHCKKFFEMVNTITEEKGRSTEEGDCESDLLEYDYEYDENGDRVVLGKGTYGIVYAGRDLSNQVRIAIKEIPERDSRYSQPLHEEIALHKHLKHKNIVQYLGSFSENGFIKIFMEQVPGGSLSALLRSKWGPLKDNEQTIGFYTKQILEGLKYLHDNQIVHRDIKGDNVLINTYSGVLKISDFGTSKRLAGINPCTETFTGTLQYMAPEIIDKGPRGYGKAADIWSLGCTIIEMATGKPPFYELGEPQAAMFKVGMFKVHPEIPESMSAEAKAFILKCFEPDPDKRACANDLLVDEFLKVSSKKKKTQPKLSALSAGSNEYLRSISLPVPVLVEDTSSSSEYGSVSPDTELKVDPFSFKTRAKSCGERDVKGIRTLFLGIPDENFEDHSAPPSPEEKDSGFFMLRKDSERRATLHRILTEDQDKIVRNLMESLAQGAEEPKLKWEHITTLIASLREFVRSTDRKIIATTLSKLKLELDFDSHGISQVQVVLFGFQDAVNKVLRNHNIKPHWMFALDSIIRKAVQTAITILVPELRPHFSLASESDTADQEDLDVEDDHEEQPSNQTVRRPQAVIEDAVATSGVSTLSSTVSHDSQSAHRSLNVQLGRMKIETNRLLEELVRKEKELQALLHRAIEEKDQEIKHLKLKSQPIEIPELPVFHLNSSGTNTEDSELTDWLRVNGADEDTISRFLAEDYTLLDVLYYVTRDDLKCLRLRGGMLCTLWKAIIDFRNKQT

[10] = target: panel of more than 300 wild-type and mutant kinases (313 kinase panel) (Homo sapiens, UniProt Q15349)
[11] = kinase EGFR(d746-750), compound at 1 μM
[12] = kinase EGFR(d746-750/T790M), compound at 1 μM
[13] = kinase EML4-ALK, compound at 1 μM

Sequence of panel of more than 300 wild-type and mutant kinases (313 kinase panel) (Homo sapiens, UniProt Q02763) (Q02763 23-1124, change not shown): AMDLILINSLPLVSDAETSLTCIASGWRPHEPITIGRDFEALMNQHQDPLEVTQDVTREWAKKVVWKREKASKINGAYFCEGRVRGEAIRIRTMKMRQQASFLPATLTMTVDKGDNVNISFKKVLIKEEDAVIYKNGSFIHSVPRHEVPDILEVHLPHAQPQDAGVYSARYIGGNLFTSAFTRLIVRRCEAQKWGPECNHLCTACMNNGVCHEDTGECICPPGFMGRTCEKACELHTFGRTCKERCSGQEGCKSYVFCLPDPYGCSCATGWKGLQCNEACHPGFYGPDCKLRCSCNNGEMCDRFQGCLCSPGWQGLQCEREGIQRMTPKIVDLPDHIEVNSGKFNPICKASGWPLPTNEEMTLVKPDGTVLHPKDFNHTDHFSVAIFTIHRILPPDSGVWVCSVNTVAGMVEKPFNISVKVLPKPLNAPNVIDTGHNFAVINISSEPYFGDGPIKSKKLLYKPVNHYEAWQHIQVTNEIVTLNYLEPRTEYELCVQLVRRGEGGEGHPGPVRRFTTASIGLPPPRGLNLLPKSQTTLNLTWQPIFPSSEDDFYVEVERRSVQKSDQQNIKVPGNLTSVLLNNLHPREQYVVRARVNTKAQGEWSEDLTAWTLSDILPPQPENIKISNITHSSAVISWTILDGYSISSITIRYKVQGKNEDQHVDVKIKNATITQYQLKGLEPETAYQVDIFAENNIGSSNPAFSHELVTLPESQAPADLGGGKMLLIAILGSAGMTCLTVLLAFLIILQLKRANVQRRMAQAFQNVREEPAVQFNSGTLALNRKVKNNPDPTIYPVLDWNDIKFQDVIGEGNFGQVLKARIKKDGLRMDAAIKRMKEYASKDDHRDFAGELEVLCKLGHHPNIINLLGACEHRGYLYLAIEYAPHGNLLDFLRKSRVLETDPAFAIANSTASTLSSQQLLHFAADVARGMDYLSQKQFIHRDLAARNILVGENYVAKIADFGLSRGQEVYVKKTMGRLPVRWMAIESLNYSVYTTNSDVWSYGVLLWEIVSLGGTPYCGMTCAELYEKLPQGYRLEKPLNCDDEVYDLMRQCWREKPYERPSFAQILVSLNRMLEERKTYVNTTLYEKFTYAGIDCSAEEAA
Sequence of panel of more than 300 wild-type and mutant kinases (313 kinase panel) (Homo sapiens, UniProt P30291) (P30291 whole entry, change not shown): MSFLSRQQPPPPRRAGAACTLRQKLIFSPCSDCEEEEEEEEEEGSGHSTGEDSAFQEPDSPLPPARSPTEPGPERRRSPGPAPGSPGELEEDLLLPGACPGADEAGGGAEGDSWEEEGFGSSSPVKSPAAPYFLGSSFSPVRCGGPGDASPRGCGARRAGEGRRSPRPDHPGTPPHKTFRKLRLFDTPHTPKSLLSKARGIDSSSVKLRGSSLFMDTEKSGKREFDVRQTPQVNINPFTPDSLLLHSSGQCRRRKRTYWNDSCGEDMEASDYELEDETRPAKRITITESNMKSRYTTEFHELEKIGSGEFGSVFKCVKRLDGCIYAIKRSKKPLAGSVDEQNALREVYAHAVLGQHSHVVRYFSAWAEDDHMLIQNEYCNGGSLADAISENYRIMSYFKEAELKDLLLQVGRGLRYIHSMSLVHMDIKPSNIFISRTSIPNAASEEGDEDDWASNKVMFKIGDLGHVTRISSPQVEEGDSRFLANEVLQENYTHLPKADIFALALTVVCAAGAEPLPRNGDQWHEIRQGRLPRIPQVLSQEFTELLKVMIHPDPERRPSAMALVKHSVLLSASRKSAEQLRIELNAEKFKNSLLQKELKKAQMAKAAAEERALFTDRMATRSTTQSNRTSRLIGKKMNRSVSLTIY
Sequence of panel of more than 300 wild-type and mutant kinases (313 kinase panel) (Homo sapiens, UniProt P08631) (P08631 whole entry, change not shown): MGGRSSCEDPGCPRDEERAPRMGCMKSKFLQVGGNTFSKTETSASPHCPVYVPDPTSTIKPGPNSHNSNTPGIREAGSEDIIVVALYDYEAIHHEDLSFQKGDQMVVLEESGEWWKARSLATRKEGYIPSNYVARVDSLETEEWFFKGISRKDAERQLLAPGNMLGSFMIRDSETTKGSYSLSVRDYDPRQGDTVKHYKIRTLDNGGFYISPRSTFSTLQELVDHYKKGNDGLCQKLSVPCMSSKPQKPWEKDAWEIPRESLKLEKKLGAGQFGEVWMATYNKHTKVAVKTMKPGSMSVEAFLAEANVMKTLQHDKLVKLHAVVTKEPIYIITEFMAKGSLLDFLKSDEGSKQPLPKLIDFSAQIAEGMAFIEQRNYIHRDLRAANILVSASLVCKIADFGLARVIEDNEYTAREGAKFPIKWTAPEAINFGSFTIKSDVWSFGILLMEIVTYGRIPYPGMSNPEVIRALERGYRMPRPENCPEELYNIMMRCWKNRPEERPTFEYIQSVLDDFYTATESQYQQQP
Sequence of panel of more than 300 wild-type and mutant kinases (313 kinase panel) (Homo sapiens, UniProt P14616) (P14616 27-1297, change not shown): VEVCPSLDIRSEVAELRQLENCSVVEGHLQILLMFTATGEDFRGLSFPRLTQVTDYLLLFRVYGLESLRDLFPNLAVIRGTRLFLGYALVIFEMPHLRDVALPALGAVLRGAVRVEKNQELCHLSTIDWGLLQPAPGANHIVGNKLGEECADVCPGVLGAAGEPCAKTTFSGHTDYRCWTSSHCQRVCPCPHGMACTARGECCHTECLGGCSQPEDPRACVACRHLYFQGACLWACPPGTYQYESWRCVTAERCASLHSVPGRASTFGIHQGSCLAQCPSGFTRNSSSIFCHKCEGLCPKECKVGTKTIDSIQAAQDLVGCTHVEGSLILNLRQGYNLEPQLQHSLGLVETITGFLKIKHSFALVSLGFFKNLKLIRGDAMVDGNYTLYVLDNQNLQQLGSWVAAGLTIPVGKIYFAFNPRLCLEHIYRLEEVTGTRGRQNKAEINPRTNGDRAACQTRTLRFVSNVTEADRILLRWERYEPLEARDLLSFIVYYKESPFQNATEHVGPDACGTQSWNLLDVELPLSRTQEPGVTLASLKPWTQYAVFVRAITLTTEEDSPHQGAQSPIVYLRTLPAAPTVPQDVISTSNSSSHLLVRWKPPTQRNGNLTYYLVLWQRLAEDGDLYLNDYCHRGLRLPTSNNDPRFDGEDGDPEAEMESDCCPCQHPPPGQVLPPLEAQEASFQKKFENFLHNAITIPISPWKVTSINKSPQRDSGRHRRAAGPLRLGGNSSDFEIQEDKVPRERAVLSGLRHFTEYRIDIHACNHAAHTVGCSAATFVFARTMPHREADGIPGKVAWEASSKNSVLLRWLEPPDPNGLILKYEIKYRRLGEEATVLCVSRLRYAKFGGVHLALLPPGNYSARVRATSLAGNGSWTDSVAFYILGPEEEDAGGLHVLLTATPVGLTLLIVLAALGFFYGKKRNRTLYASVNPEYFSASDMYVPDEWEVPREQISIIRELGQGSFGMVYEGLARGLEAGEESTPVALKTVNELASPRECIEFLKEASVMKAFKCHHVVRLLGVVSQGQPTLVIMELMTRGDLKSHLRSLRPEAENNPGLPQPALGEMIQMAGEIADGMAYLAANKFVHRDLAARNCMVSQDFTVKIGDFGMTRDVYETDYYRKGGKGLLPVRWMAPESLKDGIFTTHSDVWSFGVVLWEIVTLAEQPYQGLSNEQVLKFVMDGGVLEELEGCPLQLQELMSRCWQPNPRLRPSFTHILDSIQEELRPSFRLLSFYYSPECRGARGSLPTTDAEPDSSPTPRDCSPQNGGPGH

| Compound | %-inhibition of TIE2 [1] | %-inhibition of SPHK1 [2] | %-inhibition of TRKC [3] | %-inhibition of IRR ([4]; kinase IRR, compound at 1 μM) | %-inhibition of HCK ([5]; kinase HCK, compound at 1 μM) | %-inhibition of WEE1 ([6]; kinase WEE1, compound at 1 μM) | %-inhibition of ROS ([7]; kinase ROS, 1 μM) | %-inhibition of MAP3K5 [9] | %-inhibition of TAK1-TAB1 [8] | %-inhibition of EGFR(d746-750) ([8]; 1 µM) | %-inhibition of EGFR(d746-750/T790M) ([8]; 1 µM) | %-inhibition of LYNb ([8]; 1 µM) | %-inhibition of PKCβ2 ([8]; 1 µM) | %-inhibition of SRM ([8]; 1 µM) | %-inhibition of RSK3 ([10]; kinase RSK3, 1 μM) | %-inhibition of NPM1-ALK [8] | %-inhibition of EML4-ALK ([8]; 1 µM) | also measured |
| --- | --- | --- | --- | --- | --- | --- | --- | --- | --- | --- | --- | --- | --- | --- | --- | --- | --- | --- |
| CC(C)(C)c1nc(-c2cccc(NS(=O)(=O)c3c(F)cccc3F)c2F)c(-c2ccnc(N)n2)s1 [dabrafenib] | 81% | -18% | 81% | 10% | 57% | 0.651% | 8.55% | – | – | – | – | – | – | – | – | – | – | %-inhibition of EGFR(d746-750) [8, 11]: -1.84%; %-inhibition of EGFR(d746-750/T790M) [8, 12]: 6.41%; %-inhibition of EML4-ALK [8, 13]: -1.11%; %-inhibition of LYNb ([8]; kinase LYNb, compound at 1 μM): 86%; %-inhibition of NPM1-ALK ([8]; kinase NPM1-ALK, 1 μM): -3%; %-inhibition of PKCβ2 ([8]; kinase PKCβ2, 1 μM): -3%; %-inhibition of SRM ([8]; kinase SRM, 1 μM): 100%; %-inhibition of TAK1-TAB1 ([8]; kinase TAK1-TAB1, 1 μM): 14% |
| CN(C)C/C=C/C(=O)Nc1cc2c(Nc3ccc(F)c(Cl)c3)ncnc2cc1O[C@H]1CCOC1 [afatinib] | – | -2% | – | – | – | – | – | – | – | – | – | – | – | – | – | – | – | – |
| Cc1nc(Nc2ncc(C(=O)Nc3c(C)cccc3Cl)s2)cc(N2CCN(CCO)CC2)n1 [dasatinib] | – | – | – | -16% | – | – | – | -1.69% | – | – | – | – | – | – | – | – | – | – |
| C[C@@H](Oc1cc(-c2cnn(C3CCNCC3)c2)cnc1N)c1c(Cl)ccc(F)c1Cl [crizotinib] | – | -14% | – | – | 26% | 12% | – | 1.11% | 5% | 2% | 8% | 34% | -1.6% | 1.51% | 3.34% | – | – | – |
| Cc1ccc(C(=O)Nc2ccc(CN3CCN(C)CC3)c(C(F)(F)F)c2)cc1C#Cc1cnc2cccnn12 [ponatinib] | 101% | -20% | 103% | – | 98% | 2.14% | 58% | – | – | – | – | – | – | – | 62% | – | – | – |
| O=S(=O)(c1cccc2cnccc12)N1CCCNCC1 [fasudil] | -10% | -15% | -5.34% | 0.15% | -2.15% | -0.258% | 4.27% | -15% | – | – | – | – | – | – | – | – | – | – |
| COc1cc(Nc2c(C#N)cnc3cc(OCCCN4CCN(C)CC4)c(OC)cc23)c(Cl)cc1Cl [bosutinib] | 22% | -23% | – | 57% | 89% | 98% | 2.77% | – | 83% | 100% | 92% | 94% | 22% | 58% | – | 66% | 54% | %-inhibition of RSK3 ([10]; 1 µM): 67% |
| COc1cc2c(Nc3ccc(Br)cc3F)ncnc2cc1OCC1CCN(C)CC1 [vandetanib] | 85% | -13% | 15% | -3.23% | – | 1.73% | 48% | 8% | 6% | 100% | 85% | 91% | -2.13% | 39% | 9% | 28% | 20% | – |
| COc1cc2nccc(Oc3ccc(NC(=O)C4(C(=O)Nc5ccc(F)cc5)CC4)cc3)c2cc1OC [cabozantinib] | 90% | -12% | 98% | 66% | 95% | 5.45% | – | 1.72% | – | – | – | – | – | – | 0.355% | – | – | %-inhibition of EGFR(d746-750) [8, 11]: 51%; %-inhibition of EGFR(d746-750/T790M) [8, 12]: 43%; %-inhibition of EML4-ALK [8, 13]: 17%; %-inhibition of LYNb ([8]; kinase LYNb, compound at 1 μM): 97%; %-inhibition of NPM1-ALK ([8]; kinase NPM1-ALK, 1 μM): 10%; %-inhibition of PKCβ2 ([8]; kinase PKCβ2, 1 μM): -0.178%; %-inhibition of SRM ([8]; kinase SRM, 1 μM): 99%; %-inhibition of TAK1-TAB1 ([8]; kinase TAK1-TAB1, 1 μM): 4.37% |
| N#CC[C@H](C1CCCC1)n1cc(-c2ncnc3[nH]ccc23)cn1 [ruxolitinib] | 3% | -15% | – | 0.404% | 9% | -1.32% | – | 6% | 6% | -1.14% | 1.32% | 8% | 5% | 4.69% | 9% | 65% | 64% | %-inhibition of ROS ([7]; 1 µM): 54% |
| Cc1cn(-c2cc(NC(=O)c3ccc(C)c(Nc4nccc(-c5cccnc5)n4)c3)cc(C(F)(F)F)c2)cn1 [nilotinib] | 41% | 11% | – | – | – | – | – | -2.28% | 5% | – | – | 85% | 1.66% | 27% | 11% | -64% | -12% | %-inhibition of IRR ([4]; 1 µM): -0.717%; %-inhibition of HCK ([5]; 1 µM): 73%; %-inhibition of WEE1 ([6]; 1 µM): 3.74%; %-inhibition of ROS ([7]; 1 µM): -0.679% |
